Reference: patent publication US20230312550A1, “N-(2-(4-CYANOTHIAZOLIDIN-3-YL)-2-OXOETHYL)-QUINOLINE-4-CARBOXAMIDES” (AstraZeneca AB, priority 2020, published 2023)
Converted amounts (≈) assume the structure as drawn.

Assays:
[1] = target: human Fibroblast activation protein alpha (hFAP) (Homo sapiens (Human), UniProt Q12884); assay: hFAP inhibition assay (tight binders); format: biochemical; settings: Ala-Pro-AMC 20 μM, n = 1 or geometric mean n = 2-6; further: hFAP 2.4 pM
Description: The plates were read on a PHERAstar® reader with excitation 340 nm and emission 460 nm. Data were analyzed in Genedata Screener®. IC50 values were determined by plotting % inhibition versus log compound concentration and using a one site dose response model.

[2] = Metabolic stability in human liver microsomes (HLM); settings: human
Description: Metabolic stability in HLM was measured as described in J Comput Aided Mol Des 2015, 29, 795.

[3] = Metabolic stability in rat hepatocytes (rHep); settings: n = 1 or geometric mean of n = 2-3
[4] = Kinetic solubility; settings: kinetic from dmso stock
Description: Kinetic solubility was measured as described in Comput Aided Mol Des 2015, 29, 795.

[5] = target: Prolyl endopeptidase, Prolyl Oligopeptidase (hPREP) (Homo sapiens (Human), UniProt P48147); assay: hPrep inhibition assay; format: biochemical; settings: hPREP 0.6 nM, Z-Gly-Pro-amino-methylcoumarin 50 μM; read-out: PREP IC50
Outline: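 Fluorogenic read-out (340 nm excitation, 460 nm emission) after 20 min at rt, using 50 μM final Z-Gly-Pro-aminomethylcoumarin and 0.6 nM final enzyme, following 15 min compound preincubation. Buffer pH 7.5 with glutathione and Triton X-100. IC50 via one-site model on % inhibition vs log concentration.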

[6] = target: hFAP (M39-A757) (Homo sapiens (Human), UniProt Q12884); assay: hFAP binding assay (surface plasmon resonance); settings: SPR, 20° C.; for hFAP Binding assay k(off) / hFAP Binding assay k(on): single cycle kinetics; for Kd: n = 1 or geometric mean n = 2-4
[7] = HLM CLint, n = 1 or average of n = 2-3
[8] = Solubility, kinetic solubility, n = 1 or average of n = 2-3

Prolyl endopeptidase, Prolyl Oligopeptidase (hPREP), sequence (P48147 whole entry): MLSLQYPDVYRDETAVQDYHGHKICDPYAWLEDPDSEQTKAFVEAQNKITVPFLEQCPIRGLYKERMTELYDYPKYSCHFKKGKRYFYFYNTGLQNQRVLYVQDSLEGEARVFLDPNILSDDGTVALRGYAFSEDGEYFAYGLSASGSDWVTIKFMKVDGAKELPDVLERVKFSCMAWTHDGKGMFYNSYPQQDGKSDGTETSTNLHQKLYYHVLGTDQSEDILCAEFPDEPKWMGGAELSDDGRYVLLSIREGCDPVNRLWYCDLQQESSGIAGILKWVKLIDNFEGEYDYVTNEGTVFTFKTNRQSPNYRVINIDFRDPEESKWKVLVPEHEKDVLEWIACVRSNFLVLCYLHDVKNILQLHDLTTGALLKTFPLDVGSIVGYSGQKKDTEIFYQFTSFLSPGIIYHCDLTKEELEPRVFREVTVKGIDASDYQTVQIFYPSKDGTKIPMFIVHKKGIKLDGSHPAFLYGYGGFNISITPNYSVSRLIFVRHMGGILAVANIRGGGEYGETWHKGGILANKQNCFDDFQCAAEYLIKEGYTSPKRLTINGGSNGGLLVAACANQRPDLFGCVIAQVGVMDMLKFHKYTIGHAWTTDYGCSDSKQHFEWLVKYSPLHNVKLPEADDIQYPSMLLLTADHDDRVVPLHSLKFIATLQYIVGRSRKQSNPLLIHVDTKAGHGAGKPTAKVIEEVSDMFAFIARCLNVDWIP
human Fibroblast activation protein alpha (hFAP), sequence (Q12884 38-760): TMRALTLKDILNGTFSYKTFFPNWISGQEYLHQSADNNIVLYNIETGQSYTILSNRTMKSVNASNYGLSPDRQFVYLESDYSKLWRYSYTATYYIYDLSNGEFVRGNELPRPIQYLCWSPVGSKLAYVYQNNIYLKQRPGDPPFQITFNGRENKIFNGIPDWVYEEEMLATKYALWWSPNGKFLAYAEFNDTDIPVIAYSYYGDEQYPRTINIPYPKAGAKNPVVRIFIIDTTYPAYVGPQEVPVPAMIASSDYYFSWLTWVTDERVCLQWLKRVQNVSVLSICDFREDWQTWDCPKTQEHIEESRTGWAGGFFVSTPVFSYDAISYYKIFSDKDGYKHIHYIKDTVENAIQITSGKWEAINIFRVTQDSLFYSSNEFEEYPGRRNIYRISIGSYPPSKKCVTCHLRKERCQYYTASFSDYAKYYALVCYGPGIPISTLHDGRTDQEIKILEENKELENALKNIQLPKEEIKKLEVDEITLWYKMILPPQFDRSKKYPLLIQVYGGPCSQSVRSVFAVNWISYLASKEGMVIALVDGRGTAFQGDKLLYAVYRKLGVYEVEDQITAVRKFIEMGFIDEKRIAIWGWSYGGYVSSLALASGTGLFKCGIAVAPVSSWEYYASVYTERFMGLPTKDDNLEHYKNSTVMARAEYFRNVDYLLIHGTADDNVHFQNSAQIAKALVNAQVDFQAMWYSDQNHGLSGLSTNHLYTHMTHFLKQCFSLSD
hFAP (M39-A757), sequence (Q12884 39-757): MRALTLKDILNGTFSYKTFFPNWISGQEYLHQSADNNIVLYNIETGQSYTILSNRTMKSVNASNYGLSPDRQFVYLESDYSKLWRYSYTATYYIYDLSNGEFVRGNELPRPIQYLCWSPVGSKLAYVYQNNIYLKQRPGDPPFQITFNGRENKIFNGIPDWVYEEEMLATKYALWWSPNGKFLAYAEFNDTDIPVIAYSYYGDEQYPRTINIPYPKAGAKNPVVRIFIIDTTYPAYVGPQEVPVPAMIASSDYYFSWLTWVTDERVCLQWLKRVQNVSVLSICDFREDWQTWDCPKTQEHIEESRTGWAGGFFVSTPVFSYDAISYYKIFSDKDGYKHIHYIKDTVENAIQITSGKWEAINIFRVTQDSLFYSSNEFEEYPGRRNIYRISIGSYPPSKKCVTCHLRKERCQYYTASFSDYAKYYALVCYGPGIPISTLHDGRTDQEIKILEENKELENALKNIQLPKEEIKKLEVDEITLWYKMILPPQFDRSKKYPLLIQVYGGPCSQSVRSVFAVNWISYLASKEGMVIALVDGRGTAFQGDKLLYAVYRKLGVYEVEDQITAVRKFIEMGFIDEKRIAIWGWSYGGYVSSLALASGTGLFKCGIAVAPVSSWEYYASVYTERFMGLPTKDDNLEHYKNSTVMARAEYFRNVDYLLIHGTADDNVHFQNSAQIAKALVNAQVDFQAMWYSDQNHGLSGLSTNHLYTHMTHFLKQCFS

## N#C[C@@H]1CSCN1C(=O)CNC(=O)c1ccnc2ccc(N3CC(OC(F)F)C3)cc12 [Example 136, (R)—N-(2-(4-Cyanothiazolidin-3-yl)-2-oxoethyl)-6-(3-(difluoromethoxy)-azetidin-1-yl)quinoline-4-carboxamide]
[1]
  IC50: 0.061 nM
[2]; [7]
  microsomal CLint: < 3 µL/min/mg
[3]
  rHep CLint: 4.8 μL/min/1E6
[4]; [8]
  solubility: 21 µM (≈ 9.4 µg/mL)
[5]
  IC50: 300 nM
[6]
  hFAP Binding assay k(off): 0.000050 s⁻¹
  hFAP Binding assay k(on): 2000000 M⁻¹ s⁻¹
  Kd: 0.036 nM

## CCC1(C)CN(c2ccc3nccc(C(=O)NCC(=O)N4CSC[C@H]4C#N)c3c2)C1 [Example 137, (R)—N-(2-(4-Cyanothiazolidin-3-yl)-2-oxoethyl)-6-(3-ethyl-3-methyl-azetidin-1-yl)quinoline-4-carboxamide]
[1]
  IC50: 0.11 nM
[2]; [7]
  microsomal CLint: 70 µL/min/mg
[3]
  rHep CLint: 17 μL/min/1E6
[4]; [8]
  solubility: 74 µM (≈ 31.3 µg/mL)
[5]
  IC50: 340 nM
[6]
  hFAP Binding assay k(off): 0.000098 s⁻¹
  hFAP Binding assay k(on): 9500000 M⁻¹ s⁻¹
  Kd: 0.013 nM

## N#C[C@@H]1CSCN1C(=O)CNC(=O)c1ccnc2ccc(N3CC4(CCCC4)C3)cc12 [Example 139, (R)—N-(2-(4-Cyanothiazolidin-3-yl)-2-oxoethyl)-6-(2-azaspiro[3.4]octan-2-yl)quinoline-4-carboxamide]
[1]
  IC50: 0.32 nM
[2]
  microsomal CLint: 72 µL/min/mg
[3]
  rHep CLint: 13 μL/min/1E6
[4]
  solubility: 50 µM (≈ 21.8 µg/mL)
[5]
  IC50: 1000 nM
[6]
  Kd: 0.015 nM

## CC(F)(F)CC1CN(c2ccc3nccc(C(=O)NCC(=O)N4CSC[C@H]4C#N)c3c2)C1 [Example 140, (R)—N-(2-(4-Cyanothiazolidin-3-yl)-2-oxoethyl)-6-(3-(2,2-difluoropropyl)-azetidin-1-yl)quinoline-4-carboxamide]
[1]
  IC50: 0.1 nM
[2]; [7]
  microsomal CLint: 32 µL/min/mg
[3]
  rHep CLint: 7.7 μL/min/1E6
[4]; [8]
  solubility: 39 µM (≈ 17.9 µg/mL)
[5]
  IC50: 840 nM
[6]
  hFAP Binding assay k(off): 0.00016 s⁻¹
  hFAP Binding assay k(on): 2600000 M⁻¹ s⁻¹
  Kd: 0.064 nM

## N#C[C@@H]1CSCN1C(=O)CNC(=O)c1ccnc2ccc(N3CC4(CCCC4(F)F)C3)cc12 [Example 141, (R)—N-(2-(4-Cyanothiazolidin-3-yl)-2-oxoethyl)-6-(5,5-difluoro-2-azaspiro[3.4]octan-2-yl)quinoline-4-carboxamide]
[1]
  IC50: 0.059 nM
[2]
  microsomal CLint: 54 µL/min/mg
[3]
  rHep CLint: 11 μL/min/1E6
[4]
  solubility: 140 µM (≈ 66 µg/mL)
[5]
  IC50: 460 nM
[6]
  hFAP Binding assay k(off): 0.000078 s⁻¹
  hFAP Binding assay k(on): 1400000 M⁻¹ s⁻¹
  Kd: 0.062 nM

## N#C[C@@H]1CSCN1C(=O)CNC(=O)c1ccnc2ccc(N3CC(CCC(F)(F)F)C3)cc12 [Example 142, (R)—N-(2-(4-Cyanothiazolidin-3-yl)-2-oxoethyl)-6-(3-(3,3,3-trifluoropropyl)azetidin-1-yl)quinoline-4-carboxamide]
[1]
  IC50: 0.088 nM
[2]; [7]
  microsomal CLint: 43 µL/min/mg
[3]
  rHep CLint: 6.7 μL/min/1E6
[4]; [8]
  solubility: 1.8 µM (≈ 0.86 µg/mL)
[5]
  IC50: 530 nM
[6]
  hFAP Binding assay k(off): 0.000055 s⁻¹
  hFAP Binding assay k(on): 1800000 M⁻¹ s⁻¹
  Kd: 0.028 nM

## N#C[C@@H]1CSCN1C(=O)CNC(=O)c1ccnc2ccc(N3CC(F)(C(F)(F)F)C3)cc12 [Example 143, (R)—N-(2-(4-Cyanothiazolidin-3-yl)-2-oxoethyl)-6-(3-fluoro-3-(trifluoromethyl)azetidin-1-yl)quinoline-4-carboxamide]
[1]
  IC50: 0.069 nM
[2]; [7]
  microsomal CLint: 40 µL/min/mg
[3]
  rHep CLint: 13 μL/min/1E6
[4]; [8]
  solubility: 33 µM (≈ 15.4 µg/mL)
[5]
  IC50: 460 nM
[6]
  hFAP Binding assay k(off): 0.000057 s⁻¹
  hFAP Binding assay k(on): 1600000 M⁻¹ s⁻¹
  Kd: 0.036 nM

## N#C[C@@H]1CSCN1C(=O)CNC(=O)c1ccnc2ccc(N3CC(CC(F)F)C3)cc12 [Example 144, (R)—N-(2-(4-Cyanothiazolidin-3-yl)-2-oxoethyl)-6-(3-(2,2-difluoroethyl)-azetidin-1-yl)quinoline-4-carboxamide]
[1]
  IC50: 0.081 nM
[2]; [7]
  microsomal CLint: 14 µL/min/mg
[3]
  rHep CLint: 7 μL/min/1E6
[4]; [8]
  solubility: 18 µM (≈ 8.02 µg/mL)
[5]
  IC50: 460 nM
[6]
  hFAP Binding assay k(off): 0.00051 s⁻¹
  hFAP Binding assay k(on): 9100000 M⁻¹ s⁻¹
  Kd: 0.049 nM

## N#C[C@@H]1CSCN1C(=O)CNC(=O)c1ccnc2ccc(N3CC(C4CC4)C3)cc12 [Example 145, (R)—N-(2-(4-Cyanothiazolidin-3-yl)-2-oxoethyl)-6-(3-cyclopropylazetidin-1-yl)quinoline-4-carboxamide]
[1]
  IC50: 0.07 nM
[2]; [7]
  microsomal CLint: 40 µL/min/mg
[3]
  rHep CLint: 10 μL/min/1E6
[4]; [8]
  solubility: 5.3 µM (≈ 2.23 µg/mL)
[5]
  IC50: 250 nM
[6]
  hFAP Binding assay k(off): 0.00013 s⁻¹
  hFAP Binding assay k(on): 4500000 M⁻¹ s⁻¹
  Kd: 0.029 nM

## N#C[C@@H]1CSCN1C(=O)CNC(=O)c1ccnc2ccc(N3CC(CCF)C3)cc12 [Example 146, (R)—N-(2-(4-Cyanothiazolidin-3-yl)-2-oxoethyl)-6-(3-(2-fluoroethyl)-azetidin-1-yl)quinoline-4-carboxamide]
[1]
  IC50: 0.15 nM
[2]; [7]
  microsomal CLint: 11 µL/min/mg
[3]
  rHep CLint: 4.3 μL/min/1E6
[4]; [8]
  solubility: 24 µM (≈ 10.3 µg/mL)
[5]
  IC50: 450 nM
[6]
  hFAP Binding assay k(off): 0.00017 s⁻¹
  hFAP Binding assay k(on): 1400000 M⁻¹ s⁻¹
  Kd: 0.12 nM

## CC(C)C1CN(c2ccc3nccc(C(=O)NCC(=O)N4CSC[C@H]4C#N)c3c2)C1 [Example 148, (R)—N-(2-(4-Cyanothiazolidin-3-yl)-2-oxoethyl)-6-(3-isopropylazetidin-1-yl)quinoline-4-carboxamide]
[1]
  IC50: 0.059 nM
[2]; [7]
  microsomal CLint: 53 µL/min/mg
[3]
  rHep CLint: 12 μL/min/1E6
[4]; [8]
  solubility: 3.4 µM (≈ 1.44 µg/mL)
[5]
  IC50: 420 nM
[6]
  hFAP Binding assay k(off): 0.0002 s⁻¹
  hFAP Binding assay k(on): 6600000 M⁻¹ s⁻¹
  Kd: 0.031 nM

## CC1CC2(C1)CN(c1ccc3nccc(C(=O)NCC(=O)N4CSC[C@H]4C#N)c3c1)C2 [Example 149, (R)—N-(2-(4-Cyanothiazolidin-3-yl)-2-oxoethyl)-6-(6-methyl-2-azaspiro[3.3]heptan-2-yl)quinoline-4-carboxamide]
[1]
  IC50: 0.097 nM
[2]
  microsomal CLint: 56 µL/min/mg
[3]
  rHep CLint: 7 μL/min/1E6
[4]
  solubility: 130 µM (≈ 56.6 µg/mL)
[5]
  IC50: 470 nM
[6]
  hFAP Binding assay k(off): 0.000039 s⁻¹
  hFAP Binding assay k(on): 4800000 M⁻¹ s⁻¹
  Kd: 0.0087 nM

## N#C[C@@H]1CSCN1C(=O)CNC(=O)c1ccnc2ccc(N3CC4(CC(C(F)(F)F)C4)C3)cc12 [Example 150, (R)—N-(2-(4-Cyanothiazolidin-3-yl)-2-oxoethyl)-6-(6-(trifluoromethyl)-2-azaspiro[3.3]heptan-2-yl)quinoline-4-carboxamide]
[1]
  IC50: 0.5 nM
[2]
  microsomal CLint: 49 µL/min/mg
[3]
  rHep CLint: 5 μL/min/1E6
[4]
  solubility: 77 µM (≈ 37.7 µg/mL)
[5]
  IC50: 2000 nM
[6]
  hFAP Binding assay k(off): 0.000043 s⁻¹
  hFAP Binding assay k(on): 280000 M⁻¹ s⁻¹
  Kd: 0.16 nM

## N#C[C@@H]1CSCN1C(=O)CNC(=O)c1ccnc2ccc(N3CC(CC(F)(F)F)C3)cc12 [Example 158, (R)—N-(2-(4-Cyanothiazolidin-3-yl)-2-oxoethyl)-6-(3-(2,2,2-trifluoroethyl)-azetidin-1-yl)quinoline-4-carboxamide]
[1]
  IC50: 0.1 nM
[2]; [7]
  microsomal CLint: 17 µL/min/mg
[3]
  rHep CLint: 4.7 μL/min/1E6
[4]; [8]
  solubility: 8.9 µM (≈ 4.13 µg/mL)
[5]
  IC50: 560 nM
[6]
  hFAP Binding assay k(off): 0.00029 s⁻¹
  hFAP Binding assay k(on): 3100000 M⁻¹ s⁻¹
  Kd: 0.1 nM
